What was measured:
cocklebur = experiment: Test B pre/postemergence cocklebur; type: in vivo, Xanthium strumarium
Summary of the method: (§1)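 Response is a visual 0-to-10 score relative to untreated plants, where 0 means no effect and 10 means complete control, taken twelve to sixteen days after application. Treatments went onto soil at planting and onto foliage of 1- to 4-leaf plants, using a surfactant-containing non-phytotoxic solvent.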

corn = experiment: Test B pre/postemergence corn; type: in vivo, Zea mays
Summary of the method: as §1

wheat = experiment: Test B pre/postemergence wheat; type: in vivo, Triticum aestivum
Summary of the method: as §1

crabgrass = experiment: Test B pre/postemergence crabgrass; type: in vivo, Digitaria sanguinalis
Summary of the method: as §1

rape = experiment: Test B pre/postemergence rape; type: in vivo, Brassica napus
Summary of the method: as §1

bedstraw = experiment: Test B pre/postemergence bedstraw; type: in vivo, Galium aparine
Summary of the method: as §1

pigweed = experiment: Test B pre/postemergence pigweed; type: in vivo, Amaranthus retroflexus
Summary of the method: as §1

giant foxtail = experiment: Test B pre/postemergence giant foxtail; type: in vivo, Setaria faberii
Summary of the method: as §1

morningglory = experiment: Test B pre/postemergence morningglory; type: in vivo, Ipomoea hederacea
Summary of the method: as §1

duck salad = experiment: Test B flood test duck salad; type: in vivo, Heteranthera limosa
Summary of the method: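 Each value is a visual injury score relative to controls, with 10 meaning complete control and 0 no effect. Evaluation took place twelve to sixteen days after the 2-leaf-stage plants were treated and kept in the greenhouse.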

surinam grass = experiment: Test B pre/postemergence surinam grass; type: in vivo, Brachiaria decumbens
Summary of the method: as §1

velvetleaf = experiment: Test B pre/postemergence velvetleaf; type: in vivo, Abutilon theophrasti
Summary of the method: as §1

soybean = experiment: Test B pre/postemergence soybean; type: in vivo, Glycine max
Summary of the method: as §1

purple nutsedge = experiment: Test B pre/postemergence purple nutsedge; type: in vivo, Cyperus rotundus
Summary of the method: as §1

sugar beet = experiment: Test B pre/postemergence sugar beet; type: in vivo, Beta vulgaris
Summary of the method: as §1

[1] = Postemergence, Rate 62 g/ha, scale 0 to 10, 0 is no effect, 10 is complete control
[2] = Postemergence, Rate 250 g/ha, scale 0 to 10, 0 no effect, 10 complete control
[3] = Preemergence, Rate 62 g/ha, scale 0 to 10, 0 is no effect, 10 is complete control
[4] = Preemergence, Rate 250 g/ha, scale of 0 to 10 where 0 is no effect and 10 is complete control
[5] = Preemergence, Rate 500 g/ha, scale 0 (no effect) to 10 (complete control)
[6] = Rate 125 g/ha, Postemergence, scale 0 to 10, 0 no effect, 10 complete control
[7] = Rate 500 g/ha, Postemergence, 0 to 10 scale (0 no effect, 10 complete control)
[8] = Preemergence, Rate 125 g/ha, scale 0 to 10 (0 no effect, 10 complete control)

SMILES: Cc1ccccc1-n1c(=O)on(C(=O)N(c2ccc([N+](=O)[O-])cc2)C(C)C)c1=O [Compound 44]
- Cocklebur plant response rating (cocklebur; [1]): 0
- Cocklebur plant response rating (cocklebur; [2]): 0
- Plant response rating, Cocklebur (cocklebur; [3]): 0
- Plant response rating, Cocklebur (cocklebur; [4]): 0
- Cocklebur plant response rating (cocklebur; [5]): 0
- Cocklebur plant response rating (cocklebur; [6]): 0
- Cocklebur plant response rating (cocklebur; [7]): 0
- Corn plant response rating (corn; [1]): 0
- Corn plant response rating (corn; [2]): 0
- Plant response rating, Corn (corn; [3]): 0
- Plant response rating, Corn (corn; [8]): 0
- Plant response rating, Corn (corn; [4]): 0
- Corn plant response rating (corn; [5]): 0
- Corn plant response rating (corn; [6]): 0
- Corn plant response rating (corn; [7]): 0
- Wheat plant response rating (wheat; [1]): 0
- Wheat plant response rating (wheat; [2]): 0
- Plant response rating, Wheat (wheat; [3]): 0
- Plant response rating, Wheat (wheat; [8]): 0
- Plant response rating, Wheat (wheat; [4]): 0
- Wheat plant response rating (wheat; [5]): 0
- Wheat plant response rating (wheat; [6]): 0
- Crabgrass plant response rating (crabgrass; [1]): 0
- Crabgrass plant response rating (crabgrass; [2]): 0
- Plant response rating, Crabgrass (crabgrass; [3]): 0
- Plant response rating, Crabgrass (crabgrass; [8]): 0
- Plant response rating, Crabgrass (crabgrass; [4]): 0
- Crabgrass plant response rating (crabgrass; [5]): 2
- Crabgrass plant response rating (crabgrass; [6]): 0
- Crabgrass plant response rating (crabgrass; [7]): 0
- Rape plant response rating (rape; [1]): 0
- Rape plant response rating (rape; [2]): 0
- Plant response rating, Rape (rape; [3]): 0
- Plant response rating, Rape (rape; [8]): 0
- Plant response rating, Rape (rape; [4]): 0
- Rape plant response rating (rape; [5]): 0
- Rape plant response rating (rape; [6]): 0
- Rape plant response rating (rape; [7]): 0
- Bedstraw plant response rating (bedstraw; [1]): 0
- Bedstraw plant response rating (bedstraw; [2]): 0
- Plant response rating, Bedstraw (bedstraw; [3]): 0
- Plant response rating, Bedstraw (bedstraw; [8]): 0
- Plant response rating, Bedstraw (bedstraw; [4]): 0
- Bedstraw plant response rating (bedstraw; [5]): 0
- Bedstraw plant response rating (bedstraw; [6]): 0
- Bedstraw plant response rating (bedstraw; [7]): 0
- Redroot pigweed plant response rating (pigweed; [1]): 0
- Redroot pigweed plant response rating (pigweed; [2]): 0
- Plant response rating, Redroot pigweed (pigweed; [3]): 0
- Plant response rating, Redroot pigweed (pigweed; [8]): 0
- Plant response rating, Redroot pigweed (pigweed; [4]): 0
- Redroot pigweed plant response rating (pigweed; [5]): 0
- Redroot pigweed plant response rating (pigweed; [6]): 0
- Redroot pigweed plant response rating (pigweed; [7]): 0
- Giant foxtail plant response rating (giant foxtail; [1]): 0
- Giant foxtail plant response rating (giant foxtail; [2]): 0
- Plant response rating, Giant foxtail (giant foxtail; [3]): 0
- Plant response rating, Giant foxtail (giant foxtail; [8]): 0
- Plant response rating, Giant foxtail (giant foxtail; [4]): 0
- Giant foxtail plant response rating (giant foxtail; [5]): 1
- Giant foxtail plant response rating (giant foxtail; [6]): 0
- Giant foxtail plant response rating (giant foxtail; [7]): 0
- Morningglory plant response rating (morningglory; [1]): 0
- Morningglory plant response rating (morningglory; [2]): 0
- Plant response rating, Morningglory (morningglory; [3]): 0
- Plant response rating, Morningglory (morningglory; [8]): 0
- Plant response rating, Morningglory (morningglory; [4]): 0
- Morningglory plant response rating (morningglory; [5]): 0
- Morningglory plant response rating (morningglory; [6]): 0
- Morningglory plant response rating (morningglory; [7]): 1
- Ducksalad plant response rating (duck salad; [1]): 0
- Ducksalad plant response rating (duck salad; Rate 125 g/ha, Postemergence section (flood test species), scale 0 to 10, 0 no effect, 10 complete control): 0
- Ducksalad plant response rating (duck salad; Rate 500 g/ha, Postemergence section of Table B, 0 to 10 scale (0 no effect, 10 complete control)): 0
- Ducksalad plant response rating (duck salad; flood test, listed under Postemergence, Rate 250 g/ha, scale 0 to 10, 0 no effect, 10 complete control): 0
- B. signalgrass plant response rating (surinam grass; [1]): 0
- B. signalgrass plant response rating (surinam grass; [2]): 0
- Plant response rating, B. signalgrass (surinam grass; [3]): 0
- Plant response rating, B. signalgrass (surinam grass; [8]): 0
- Plant response rating, B. signalgrass (surinam grass; [4]): 0
- B. signalgrass plant response rating (surinam grass; [5]): 0
- B. signalgrass plant response rating (surinam grass; [6]): 0
- B. signalgrass plant response rating (surinam grass; [7]): 0
- Velvetleaf plant response rating (velvetleaf; [1]): 0
- Velvetleaf plant response rating (velvetleaf; [2]): 0
- Plant response rating, Velvetleaf (velvetleaf; [3]): 0
- Plant response rating, Velvetleaf (velvetleaf; [8]): 0
- Plant response rating, Velvetleaf (velvetleaf; [4]): 0
- Velvetleaf plant response rating (velvetleaf; [5]): 0
- Velvetleaf plant response rating (velvetleaf; [6]): 0
- Soybean plant response rating (soybean; [1]): 0
- Soybean plant response rating (soybean; [2]): 1
- Plant response rating, Soybean (soybean; [3]): 0
- Plant response rating, Soybean (soybean; [8]): 0
- Plant response rating, Soybean (soybean; [4]): 0
- Soybean plant response rating (soybean; [5]): 0
- Soybean plant response rating (soybean; [6]): 0
- Nutsedge plant response rating (purple nutsedge; [1]): 0
- Nutsedge plant response rating (purple nutsedge; [2]): 0
- Plant response rating, Nutsedge (purple nutsedge; [3]): 0
- Plant response rating, Nutsedge (purple nutsedge; [8]): 0
- Plant response rating, Nutsedge (purple nutsedge; [4]): 0
- Nutsedge plant response rating (purple nutsedge; [5]): 0
- Nutsedge plant response rating (purple nutsedge; [6]): 0
- Nutsedge plant response rating (purple nutsedge; [7]): 0
- Sugarbeets plant response rating (sugar beet; [1]): 0
- Sugarbeets plant response rating (sugar beet; [2]): 0
- Plant response rating, Sugarbeets (sugar beet; [3]): 0
- Plant response rating, Sugarbeets (sugar beet; [8]): 0
- Plant response rating, Sugarbeets (sugar beet; [4]): 0
- Sugarbeets plant response rating (sugar beet; [5]): 0
- Sugarbeets plant response rating (sugar beet; [6]): 0

— patent publication US6737383B1, “Herbicidal oxadiazolidines” (priority 1999, dated 2004)
